Laboratory results from patent US7335495B2, “Process for the isolation of pharmaceutical compound cyclosporin a from fungus fusarium nivale” (Council of Scientific and Industrial Research, priority 2002, dated 2008).

How the values were obtained:
Fusarium sp. = test: MIC by disk diffusion method, Fusarium sp.; assay type: cell-based; details: disks of 50, 25, 12.5, 6.25 and 3.12 μg, 42-120 hrs at room temperature
T. tonsurans = test: MIC by disk diffusion method, T. tonsurans; assay type: cell-based, Trichophyton tonsurans; details: disks of 50, 25, 12.5, 6.25 and 3.12 μg, 42-120 hrs at room temperature
Text: (§1) Czapek Malt Agar (Himedia laboratories Ltd.) was used for culturing Tricholphytos mentagrophytes T. tonsurans, T. violaceum, Aspergillus fresnil and A niger, A. japonicus. Mucological Agar (Himedia Laboratories Ltd was used for Cryptocaccus neoformans and Candida sp.
(§2) Pathogeiic fungal strains of yeast and filamentous fungi (Identified and gifted by Dr. Savio from Goa Medical College, Bamoblim) were used for the test. Strains of Aspergillus were isolated from the infected wheat bread with sterile needles; fungal material was surface sterilized using 0.5% sodium hypochlorite for 2-3 minutes and then washed with small brush in sterile distilled water. This Aspergillus species was described earlier as food spoilage (Bhosale et. Al., 1999). […]
(§3) Innocula were adjusted to 50 μl of Cryptococcus neoformans, Candida sp., Trichophyrou tonsurans, T. violaceum and T. mentagrophytes, Aspergillus fresenil, A. niger, A. japonicus and spread on the appropriate plates, excess moisture was allowed to be absorbed for 10 minutes before applying on disks. […] Test plates were incubated for 42-120 hrs. at room temperature to obtain maximum growth and MIC was determined as lowest concentration of compound and antifungal agents resulting in a cleas zone of growth inhibition. […]

A. niger = test: MIC by disk diffusion method, A. niger; assay type: cell-based, Aspergillus niger; details: disks of 50, 25, 12.5, 6.25 and 3.12 μg, 42-120 hrs at room temperature
Text: as §1, §2, §3

Aspergillus fresenii = test: MIC by disk diffusion method, Aspergillus fresenii; assay type: cell-based; details: disks of 50, 25, 12.5, 6.25 and 3.12 μg, 42-120 hrs at room temperature
Text: as §1, §2, §3

A. japonicus = test: MIC by disk diffusion method, A. japonicus; assay type: cell-based, Aspergillus japonicus; details: disks of 50, 25, 12.5, 6.25 and 3.12 μg, 42-120 hrs at room temperature
Text: as §1, §2, §3

Candida sp. = test: MIC by disk diffusion method, Candida sp.; assay type: cell-based; details: disks of 50, 25, 12.5, 6.25 and 3.12 μg, 42-120 hrs at room temperature
Text: as §1, §2, §3

T. violaceum = test: MIC by disk diffusion method, T. violaceum; assay type: cell-based, Trichophyton violaceum; details: disks of 50, 25, 12.5, 6.25 and 3.12 μg, 42-120 hrs at room temperature
Text: as §1, §2, §3

Cryptococcus neoformans = test: MIC by disk diffusion method, Cryptococcus neoformans; assay type: cell-based; details: Cryoticiecus Neoformans; disks of 50, 25, 12.5, 6.25 and 3.12 μg; 42-120 hrs at room temperature
Text: as §1, §2, §3

[1] = system: Trichophyton mentagrophytes; test: MIC by disk diffusion method, Trichophyton mentagrophytes; assay type: cell-based; details: disks of 50, 25, 12.5, 6.25 and 3.12 μg, 42-120 hrs at room temperature
Text: as §1, §2, §3

SMILES: C[C@@H]1[C@H](O)[C@@H](C)/C=C/C=C/C=C/C=C/C=C/C=C/C=C/[C@H](O[C@@H]2O[C@H](C)[C@@H](O)[C@H](N)[C@@H]2O)C[C@@H]2O[C@](O)(C[C@@H](O)C[C@@H](O)[C@H](O)CC[C@@H](O)C[C@@H](O)CC(=O)O[C@H]1C)C[C@H](O)[C@H]2C(=O)O [Amphotericin B]
- MIC, Disk Diffusion Method (Fusarium sp.): 12.5-25 μg/disc^−1
- MIC, Disk Diffusion Method (T. tonsurans): 6.25-12.5 μg/disc^−1
- MIC, Disk Diffusion Method (A. niger): 6.25-12.5 μg/disc^−1
- MIC, Disk Diffusion Method (Aspergillus fresenii): 6.25-12.5 μg/disc^−1
- MIC, Disk Diffusion Method (A. japonicus): 6.25-12.5 μg/disc^−1
- MIC, Disk Diffusion Method (Candida sp.): 3.12-6.25 μg/disc^−1
- MIC, Disk Diffusion Method (T. violaceum): 6.25-12.5 μg/disc^−1
- MIC, Disk Diffusion Method (Cryptococcus neoformans): 3.12-6.25 μg/disc^−1
- MIC, Disk Diffusion Method [1]: 3.12-6.25 μg/disc^−1

SMILES: C[C@@H]1[C@H](O)[C@@H](C)/C=C/C=C/CC/C=C/C=C/C=C/C=C/C(O[C@H]2O[C@H](C)[C@@H](O)[C@H](N)[C@@H]2O)CC2O[C@](O)(CC(O)C(O)CCC(O)CC(O)CC(O)CC(=O)O[C@H]1C)CC(O)C2C(=O)O (some centres unmarked) [Nystatin]
- MIC, Disk Diffusion Method (Candida sp.): 3.12-6.25 μg/disc^−1
- MIC, Disk Diffusion Method (Cryptococcus neoformans): 3.12-6.25 μg/disc^−1
